The target in one series is T1, rat EP2 receptor (Rattus norvegicus, UniProt Q62928).
T1 construct: cells seeded on STEP plates
In words: SEAP activity assay on EP2 STEP plate. The class given is cell-based. The conditions noted are these: SEAP luminescence, 6-8 hours of stimulation; read-out: STEP cell functional assay EC50 SEAP/EP2. From the text: (§1) 2. […] In addition each concentration had triplicates. […] 4. […] Cover the plate with the lid. […] 6. […] 7. […] 8.

Series [1] concerns the target T2, rat EP4 receptor (Rattus norvegicus, UniProt P43114).
T2 construct: cells seeded on STEP plates
Kind of series: SEAP activity assay on EP4 STEP plate. In kind it is cell-based. The conditions noted are these: SEAP luminescence, 6-8 hours of stimulation; read-out: STEP cell functional assay EC50 SEAP/EP4.
Source text: as §1

In series [2] the target is T3, Human Prostanoid EP4 Receptor (Homo sapiens, UniProt P35408).
T3 construct: expressed in transfected cells; host or cells: HEK-293 cells (cell membrane homogenates)
Kind of series: Radioligand binding assay, agonist site of human prostanoid EP4 receptor in transfected HEK-293 cells. The following applies: for inhibition at 0.1 µM: 2 h, pH 6, read-out: hEP4 receptor binding, % @ 100 nM, @ 100 nM test compound; for IC50: read-out: hEP4 receptor binding IC50; for Ki: read-out: hEP4 receptor binding Ki. The protocol:
Radioligand Binding Assay for the Evaluation of the Affinity of Compounds for the Agonist Site of the Human Prostanoid EP4 Receptor in Transfected HEK-293 Cells
Following incubation, the samples are filtered rapidly under vacuum through glass fiber filters (GF/B, Packard) presoaked with 0.3% PEI and rinsed several times with ice-cold 50 mM Tris-HCl using a 96-sample cell harvester (Unifilter, Packard). The filters are dried then counted for radioactivity in a scintillation counter (Topcount, Packard) using a scintillation cocktail (Microscint 0, Packard).

The target in series [3] is T2, rat EP4 receptor. In words: cAMP level assay on EP4 STEP plate. In kind it is cell-based. The conditions noted are these: cAMP by ELISA, 30 minutes, 500 μM IBMX; read-out: STEP cell functional assay EC50 cAMP/EP4. The text has this:
Functional Cellular Assays (STEP Plate Format)
Procedure of cAMP Assay for EP2/EP4 Agonist
3. […] In addition each concentration had triplicates.
6. Aspirate the supernatant.
A general note: Cyclic AMP is a second messenger, typically raised through Gs and lowered through Gi signalling.

The test system of a further series is calvarial bone defect. In words: Rat calvarial defect model. The class given is in vivo, female Sprague Dawley rats. The conditions noted are these: 3 mg/ml in calcium phosphate cement/demineralized bone matrix, eight weeks, values only in FIG. 1. The protocol:
The rat calvarial defect model is a widely used model through which the ability of a treatment agent to induce bone formation is assessed (Aghaloo et al., The effect of NELL1 and bone morphogenetic protein-2 on calvarial bone regeneration, J. Oral Maxillofac. Surg., 2010, 68, 300-308; Mark et al., Repair of calvarial nonunions by osteogenin, a bone-inductive protein, Plast. Reconstr. Surg., 1990, 86, 623-30). Bone defects are created by removal of bone from the cranium of female Sprague Dawley rats by a bone trephine (cranial defect). Cranial defects are 2.6 mm in diameter and the cranium approximately 1 mm thick. A matrix of approximately 2 mm thickness is applied to the defect. Thus the dosing volume for each defect is calculated as π*r^2*matrix thickness=3.14*1.3^2*2=10.61 μl and rounded to 11 μl for purposes of dose calculation. Example 2E is delivered set inside calcium phosphate cement that, after loading with drug and setting, is ground to a fine powder and suspended in demineralized bone matrix at a ratio of 1:8 (weight/volume). Example 2E is tested at one dose of 3 mg/ml with five rats in the test group. […] The area measured at eight weeks was compared to the area of the original defect and the degree of repair calculated by the following formula: (original area-current area)/original area*100 The mean repair for each group after eight weeks of treatment is shown in the FIG. 1.

A word on the IC50: it is the concentration that inhibits the measured activity by half. What is called Ki is a dissociation constant, usually derived from enzyme kinetics or from competition with a known ligand. The term melting point denotes the temperature, or range, at which the solid turns liquid.

Molecules are shown by their SMILES.

T3 sequence (P35408 whole entry): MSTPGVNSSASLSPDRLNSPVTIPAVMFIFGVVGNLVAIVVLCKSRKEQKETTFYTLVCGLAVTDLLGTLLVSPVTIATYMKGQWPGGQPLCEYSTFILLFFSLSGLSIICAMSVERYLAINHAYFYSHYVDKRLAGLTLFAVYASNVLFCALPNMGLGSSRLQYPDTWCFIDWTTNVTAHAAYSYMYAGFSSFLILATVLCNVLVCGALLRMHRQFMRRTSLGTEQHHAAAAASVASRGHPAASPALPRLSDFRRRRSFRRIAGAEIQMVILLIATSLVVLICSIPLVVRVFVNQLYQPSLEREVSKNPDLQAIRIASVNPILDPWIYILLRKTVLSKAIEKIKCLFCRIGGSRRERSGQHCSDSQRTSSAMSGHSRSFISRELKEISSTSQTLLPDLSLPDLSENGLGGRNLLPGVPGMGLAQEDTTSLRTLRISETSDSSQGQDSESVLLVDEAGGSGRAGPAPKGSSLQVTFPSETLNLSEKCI
T1 sequence (Q62928 whole entry): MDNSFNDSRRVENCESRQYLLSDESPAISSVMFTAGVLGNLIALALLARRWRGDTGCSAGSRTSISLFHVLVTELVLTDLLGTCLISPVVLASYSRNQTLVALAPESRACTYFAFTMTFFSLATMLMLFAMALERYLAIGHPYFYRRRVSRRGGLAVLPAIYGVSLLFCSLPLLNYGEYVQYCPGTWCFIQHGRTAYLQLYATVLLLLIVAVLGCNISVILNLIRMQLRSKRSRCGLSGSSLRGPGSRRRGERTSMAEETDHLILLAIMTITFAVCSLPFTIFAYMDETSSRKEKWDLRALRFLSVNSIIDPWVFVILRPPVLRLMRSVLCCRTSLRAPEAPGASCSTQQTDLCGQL
T2 sequence (P43114 whole entry): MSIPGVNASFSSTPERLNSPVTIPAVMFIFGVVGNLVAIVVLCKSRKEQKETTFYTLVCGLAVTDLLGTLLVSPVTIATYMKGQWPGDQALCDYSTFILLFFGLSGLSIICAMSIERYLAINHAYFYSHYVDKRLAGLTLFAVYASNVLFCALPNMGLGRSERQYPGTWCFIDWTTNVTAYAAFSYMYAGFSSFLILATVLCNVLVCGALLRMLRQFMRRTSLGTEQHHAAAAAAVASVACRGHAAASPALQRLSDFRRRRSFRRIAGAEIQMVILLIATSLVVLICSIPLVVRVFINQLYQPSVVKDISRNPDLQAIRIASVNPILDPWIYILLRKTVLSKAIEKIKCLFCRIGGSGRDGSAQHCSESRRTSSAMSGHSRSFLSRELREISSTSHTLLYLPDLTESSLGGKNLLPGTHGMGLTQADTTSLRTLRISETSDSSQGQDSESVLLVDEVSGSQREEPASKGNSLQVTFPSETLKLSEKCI

Consider `CC#CCC(C)[C@H](O)/C=C/[C@H]1CCC(=O)N1CCCCCCC(=O)O` (mixture of isomers) [Example 1C, 7-((2R)-2-((3S,4R/S,E)-3-hydroxy-4-methyloct-1-en-6-yn-1-yl)-5-oxopyrrolidin-1-yl)heptanoic acid], for which the EC50 turned out to be 760 nM on rat EP2 receptor and 0.67 nM at rat EP4 receptor [1]. The inhibition at 0.1 µM in series [2] is 86%.
On the same counts, the results for `CC#CCC(C)[C@@H](O)/C=C/[C@H]1CCC(=O)N1CCCCCCC(=O)O` (mixture of isomers) [Example 1D, 7-((2R)-2-((3R,4R/S,E)-3-hydroxy-4-methyloct-1-en-6-yn-1-yl)-5-oxopyrrolidin-1-yl)heptanoic acid] are over 10000 nM, 4.82 nM and 11%.
Consider `CCC#CCC(C)[C@H](O)/C=C/[C@H]1CCC(=O)N1CCCCCCC(=O)O` (mixture of isomers) [Example 2C, 7-((2R)-2-((3S,4R/S,E)-3-hydroxy-4-methylnon-1-en-6-yn-1-yl)-5-oxopyrrolidin-1-yl)heptanoic acid], for which the EC50 at rat EP2 receptor was 905 nM. Moreover, the EC50 on rat EP4 receptor [1] is 0.064 nM. In addition, in series [2], the IC50 is 4 nM and the Ki came out at 1.5 nM.
Taken in the same sequence, the figures for `CC#CCC(C)[C@H](O)/C=C/[C@H]1CCC(=O)N1CCc1ccc(C(=O)O)cc1` (mixture of isomers) [Example 8C, 4-(2-((2R)-2-((3S,4R/S,E)-3-hydroxy-4-methyloct-1-en-6-yn-1-yl)-5-oxopyrrolidin-1-yl)ethyl)benzoic acid] were 120 nM, 0.19 nM, 1.3 nM and 0.47 nM.
`CC#CC[C@H](C)[C@H](O)/C=C/[C@H]1CCC(=O)N1CCCCCCC(=O)O` [Example 1E, 7-((R)-2-((3S,4S,E)-3-hydroxy-4-methyloct-1-en-6-yn-1-yl)-5-oxopyrrolidin-1-yl)heptanoic acid] displayed a melting point of 113 to 114 °C. The EC50 on rat EP2 receptor turned out to be 800 nM. Moreover, at rat EP4 receptor [1], the EC50 came to 0.57 nM. The EC50 at rat EP4 receptor [3] is 2.98 nM. In addition, in series [2], the IC50 is 3.9 nM and the Ki worked out at 1.5 nM.
In turn, `CC#CC[C@@H](C)[C@H](O)/C=C/[C@H]1CCC(=O)N1CCCCCCC(=O)O` [Example 1F, 7-((R)-2-((3S,4R,E)-3-hydroxy-4-methyloct-1-en-6-yn-1-yl)-5-oxopyrrolidin-1-yl)heptanoic acid] gave a melting point of 100 to 101 °C. The EC50 on rat EP2 receptor was 184 nM. The EC50 at rat EP4 receptor [1] amounted to 5.79 nM. Further, in series [2], the IC50 was 18 nM and the Ki was 6.9 nM.
For the molecule `CCC#CC[C@H](C)[C@H](O)/C=C/[C@H]1CCC(=O)N1CCCCCCC(=O)O` [Example 2E, 7-((R)-2-((3S,4S,E)-3-hydroxy-4-methylnon-1-en-6-yn-1-yl)-5-oxopyrrolidin-1-yl)heptanoic acid], in the series with calvarial bone defect, the “Healing of a calvarial bone defect” value is listed as “Accelerated Healing”. Moreover, the EC50 on rat EP4 receptor [1] stood at 0.19 ± 0.07 nM; on rat EP4 receptor [3], 0.96 ± 0.46 nM. Further, the IC50 in series [2] is 3 nM. In addition, the Ki in series [2] stood at 1.1 nM.
`CCC#CC[C@H](C)[C@H](O)/C=C/[C@H]1CCC(=O)N1CCc1ccc(C(=O)O)cc1` [Example 9C, 4-(2-((R)-2-((3S,4S,E)-3-hydroxy-4-methylnon-1-en-6-yn-1-yl)-5-oxopyrrolidin-1-yl)ethyl)benzoic acid]: the EC50 at rat EP4 receptor [1] stood at 0.02 nM. Also, on rat EP4 receptor [3], the EC50 was 0.31 nM. In series [2], the half-maximal inhibitory concentration (IC50) came out at 0.67 nM and the inhibitory constant (Ki) amounted to 0.25 nM.
With `CCC#CC[C@H](C)[C@H](O)/C=C/[C@H]1CCC(=O)N1CCCc1ccc(C(=O)O)s1` [Example 17D, 5-(3-((R)-2-((3S,4S,E)-3-hydroxy-4-methylnon-1-en-6-yn-1-yl)-5-oxopyrrolidin-1-yl)propyl)thiophene-2-carboxylic acid], the figures for the EC50 at rat EP2 receptor, on rat EP4 receptor [1] and at rat EP4 receptor [3] were 5300 nM, 0.32 nM and 1.54 nM, respectively. The IC50 in series [2] was determined as 6.1 nM. Besides, the Ki in series [2] is 2.3 nM.
Regarding `CCC#CCC(C)[C@H](O)/C=C/[C@H]1CCC(=O)N1CCCc1ccc(C(=O)O)s1` (stereo partly drawn) [Example 17F, 5-(3-((R)-2-((3S,E)-3-hydroxy-4-methylnon-1-en-6-yn-1-yl)-5-oxopyrrolidin-1-yl)propyl)thiophene-2-carboxylic acid], the figures for the EC50 at rat EP2 receptor and on rat EP4 receptor [1] were over 10000 nM and 0.091 nM, respectively.
Taken in the same sequence, the figures for `CCC#CCC(C)[C@@H](O)/C=C/[C@H]1CCC(=O)N1CCCc1ccc(C(=O)O)s1` (stereo partly drawn) [Example 17G, 5-(3-((R)-2-((3R,E)-3-hydroxy-4-methylnon-1-en-6-yn-1-yl)-5-oxopyrrolidin-1-yl)propyl)thiophene-2-carboxylic acid] were over 10000 nM and 18.4 nM.
On the same counts, the results for `CC(CC#Cc1ccccc1)[C@H](O)/C=C/[C@H]1CCC(=O)N1CCCc1ccc(C(=O)O)s1` (stereo partly drawn) [Example 18C, 5-(3-((2R)-2-((3S,E)-3-hydroxy-4-methyl-7-phenylhept-1-en-6-yn-1-yl)-5-oxopyrrolidin-1-yl)propyl)thiophene-2-carboxylic acid] are over 10000 nM and under 0.01 nM.
On the same counts, the results for `CC(CC#Cc1ccccc1)[C@@H](O)/C=C/[C@H]1CCC(=O)N1CCCc1ccc(C(=O)O)s1` (stereo partly drawn) [Example 18D, 5-(3-((2R)-2-((3R,E)-3-hydroxy-4-methyl-7-phenylhept-1-en-6-yn-1-yl)-5-oxopyrrolidin-1-yl)propyl)thiophene-2-carboxylic acid] are over 10000 nM and 2.03 nM.

The values are drawn from patent US9688627B2, “Lactam compounds as EP4 receptor-selective agonists for use in the treatment of EP4-mediated diseases and conditions” (Cayman Chemical Company, Inc., priority 2013, dated 2017).
